In brackets after ≈: the same amount, converted by molar mass.
Tests used:
[1] = In vitro release of risperidone from devices loaded with various risperidone addition salts (Example 5); type: physicochemical; conditions: for Percent Risperidone Released at Day 15: cumulative percent of total risperidone released from device, two-fold molar excess of acid, PBS, 37° C., 15 days; for cumulative in vitro release of risperidone after 15 days (percent of total loaded drug): device in 100 mL PBS at 37° C., risperidone salt with two-fold molar excess of acid
[2] = cited from earlier work; for Solubility: of the organic acid

Row | Compound | Percent Risperidone Released at Day 15 [1] | cumulative in vitro release of risperidone after 15 days (percent of total loaded drug) [1] | Solubility [2] | insolubility in water ([2]; neutral free base, 20-25° C.)
1 | COc1cc(C(=O)O)ccc1O [Vinallic acid, vanillic acid] | 55% | – | – | –
2 | O=c1[nH]c(=O)c2[nH]c(=O)[nH]c2[nH]1 [Uric acid] | 16% | 16% | – | –
3 | O=C(O)c1ccc(C(=O)O)cc1 [Terephthalic acid] | 2.6% | 2.6% | – | –
4 | O=C(O)CNC(=O)c1ccccc1 [Hippuric acid] | 94% | 94% | – | –
5 | Nc1ccc(C(=O)O)cc1 [PABA, 4-aminobenzoic acid] | 45% | – | – | –
6 | O=C(O)C(O)c1ccccc1 (racemic) [rac-Mandelic] | – | – | 158.7 mg/mL (≈ 1040 mM) | –
7 | O=C(O)CCCCCCCCC(=O)O [Sebacic acid, sebacic acid] | 55% | – | – | –
8 | O=C(O)CCc1ccc(O)cc1 [Hydroxyphenylpropionic acid, 3-(4-hydroxyphenyl) propionic acid] | 92% | 92% | – | –
9 | Cc1nc2n(c(=O)c1CCN1CCC(c3noc4cc(F)ccc34)CC1)CCCC2 [Risperidone, risperidone, reference compound] | – | – | – | > 10000 volumes of water per volume of drug
10 | O=C(O)/C=C/c1ccc(O)cc1 [p-Coumaric, p-coumaric acid] | – | – | 1 to 10 mg/mL | –

— patent US20250009886A1, “COMPOSITIONS FOR SMALL MOLECULE THERAPEUTIC AGENT COMPOUNDS” (Delpor, Inc., priority 2016, published 2025)
